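Method: 48-hour compound exposure of cells in 96-well plates, five concentrations, linear interpolation of endpoints. GI50 = concentration required for 50% inhibition of growth. TGI is the concentration that stops growth completely.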

Among the test systems are BT-549 breast; HL-60(TB) leukemia; HOP-62 NSCLC; HT29 colon; M14 melanoma; MOLT-4 leukemia; OVCAR-8 ovarian; UACC-257 melanoma.
What all share (test): NCI anticancer screen, dose series, 48 h

Turning to `COc1ccc2nc3cc(Cl)ccc3c(NCCCNCCC(C)O)c2c1` (stereo not drawn), the GI50 with BT-549 breast was 1.73 µM; in the assay with HL-60(TB) leukemia, 1.65 µM; with HOP-62 NSCLC it was 0.389 µM; in the assay on HT29 colon, 0.172 µM; in the assay with M14 melanoma, 0.59 µM; in the assay on MOLT-4 leukemia, 0.119 µM. Moreover, the results for the GI50 in the assay with OVCAR-8 ovarian and in the assay with UACC-257 melanoma were 0.426 µM and 1.63 µM, respectively. The TGI in the assay with BT-549 breast worked out at 4.13 µM; in the assay with HL-60(TB) leukemia it was 3.92 µM; in the assay with HOP-62 NSCLC, 2.35 µM; in the assay on HT29 colon it was 1.25 µM; in the assay on M14 melanoma, 2.02 µM; in the assay on MOLT-4 leukemia, 1.58 µM. Further, the TGI with OVCAR-8 ovarian is 2.54 µM; in the assay on UACC-257 melanoma, 3.43 µM.

In the case of `CO[C@@H]1CC(=O)C2(CC(=O)O[C@@H]2/C=C(\C)CCC=C(C)C)C[C@@H]1O` (stereo partly drawn), the GI50 in the assay on BT-549 breast is 0.492 µM; in the assay on HL-60(TB) leukemia, 0.409 µM; in the assay on HOP-62 NSCLC, 1.06 µM; in the assay on HT29 colon, 1.35 µM; with M14 melanoma, 0.709 µM; with MOLT-4 leukemia, 0.233 µM. Moreover, the GI50 is 1.32 µM in the assay on OVCAR-8 ovarian and 0.883 µM with UACC-257 melanoma. For the same molecule, the TGI in the assay on BT-549 breast was 2.34 µM; in the assay on HL-60(TB) leukemia it was 2.32 µM; in the assay on HOP-62 NSCLC, 2.64 µM; in the assay with HT29 colon, greater than 50 µM; with M14 melanoma, 1.55 µM; in the assay with MOLT-4 leukemia, greater than 50 µM. For the same molecule, the TGI in the assay on OVCAR-8 ovarian is greater than 10.5 µM; in the assay on UACC-257 melanoma, 2.52 µM.

Consider `COc1ccc2c(c1)C(c1ccccc1Cl)=Nc1c(n[nH]c1C)N2`, for which the GI50 with BT-549 breast was greater than 21.2 µM; in the assay with HL-60(TB) leukemia, greater than 25 µM; with HOP-62 NSCLC, greater than 25 µM; in the assay on HT29 colon, greater than 18.7 µM; in the assay on M14 melanoma, greater than 25 µM; with MOLT-4 leukemia it was greater than 25 µM. Also, the GI50 in the assay on OVCAR-8 ovarian and in the assay on UACC-257 melanoma was greater than 25 µM each time. Besides, the TGI in the assay with BT-549 breast, with HL-60(TB) leukemia, in the assay on HOP-62 NSCLC, in the assay on HT29 colon, with M14 melanoma and with MOLT-4 leukemia was greater than 25 µM throughout. Besides, the TGI in the assay with OVCAR-8 ovarian and in the assay on UACC-257 melanoma was greater than 25 µM throughout.

Take `Cc1cc(Cc2cc(C)cc(C(C)(C)C)c2O)c(O)c(C(C)(C)C)c1`: the GI50 was 11 µM with BT-549 breast; 10.5 µM with HL-60(TB) leukemia; 14.1 µM in the assay with HOP-62 NSCLC; 4.58 µM in the assay with HT29 colon; 11.1 µM with M14 melanoma; 6.27 µM with MOLT-4 leukemia. Further, the GI50 with OVCAR-8 ovarian was 5.17 µM; in the assay with UACC-257 melanoma, 9.55 µM. Further, the TGI with BT-549 breast was 23.9 µM; with HL-60(TB) leukemia it was greater than 100 µM; in the assay on HOP-62 NSCLC, 27.1 µM; in the assay on HT29 colon, 15.6 µM; with M14 melanoma, 23 µM; in the assay on MOLT-4 leukemia, greater than 100 µM. For the same molecule, the TGI with OVCAR-8 ovarian turned out to be 16.4 µM; with UACC-257 melanoma, 21.8 µM.

With `COc1ccc(Cl)cc1NC(=O)C(Br)C(Br)C(=O)O` (stereo not drawn), the GI50 in the assay with BT-549 breast is 3.23 µM; with HL-60(TB) leukemia, 5.61 µM; with HOP-62 NSCLC, 4.79 µM; in the assay with HT29 colon it was 25.6 µM; with M14 melanoma, 14.9 µM; in the assay on MOLT-4 leukemia, 6.78 µM. The GI50 with OVCAR-8 ovarian was 9.01 µM; with UACC-257 melanoma it was 11 µM. Moreover, the TGI with BT-549 breast was 13 µM; in the assay with HL-60(TB) leukemia it was greater than 100 µM; in the assay on HOP-62 NSCLC, 21.3 µM; in the assay on HT29 colon it was greater than 68.3 µM; in the assay with M14 melanoma, 34.9 µM; in the assay with MOLT-4 leukemia, greater than 100 µM. Besides, the TGI in the assay with OVCAR-8 ovarian was greater than 100 µM; with UACC-257 melanoma it was 40.5 µM.

Consider `COc1ccc(-n2c3c(c4c(CN5CCOCC5)c(O)ccc42)CCc2ccccc2C3=O)cc1`, for which the GI50 in the assay on BT-549 breast was 24.2 µM; in the assay with HL-60(TB) leukemia it was 22.3 µM; with HOP-62 NSCLC, greater than 100 µM; in the assay with M14 melanoma it was greater than 100 µM; with MOLT-4 leukemia it was 45.9 µM; with OVCAR-8 ovarian, 64.4 µM. In the assay on UACC-257 melanoma, the GI50 is greater than 100 µM. The TGI with BT-549 breast was greater than 100 µM; in the assay on HL-60(TB) leukemia it was greater than 100 µM; in the assay with HOP-62 NSCLC, greater than 100 µM; in the assay with HT29 colon, 0.0934 µM; in the assay with M14 melanoma it was greater than 100 µM; in the assay with MOLT-4 leukemia, greater than 100 µM. Also, the TGI in the assay with OVCAR-8 ovarian and in the assay with UACC-257 melanoma was greater than 100 µM in each case.

`CC(C)NC(=O)OCc1c(COC(=O)NC(C)C)c(-c2ccc(Cl)cc2)n2c1CCC2`: the GI50 in the assay on BT-549 breast is 2.4 µM; in the assay on HL-60(TB) leukemia it was 0.79 µM; in the assay with HOP-62 NSCLC, 3.05 µM; in the assay with HT29 colon, 4.02 µM; with M14 melanoma, 2.99 µM; in the assay with MOLT-4 leukemia, 1.42 µM. Moreover, the GI50 with OVCAR-8 ovarian was 4.1 µM; with UACC-257 melanoma, 4.16 µM. Besides, the TGI in the assay on BT-549 breast was 15.1 µM; with HL-60(TB) leukemia, 9.21 µM; in the assay on HOP-62 NSCLC, 16.2 µM; with HT29 colon, 26.4 µM; in the assay with M14 melanoma, 11.1 µM; in the assay with MOLT-4 leukemia, greater than 26.2 µM. In addition, the TGI in the assay on OVCAR-8 ovarian was greater than 85.5 µM; in the assay on UACC-257 melanoma, 29.4 µM.

For `CSc1ccc2c3c(n(C[C@H](O)CO)c(=O)c2c1)-c1ccccc1C3=O`, the GI50 with BT-549 breast is 2.77 µM; in the assay with HL-60(TB) leukemia, 1.81 µM; in the assay on HOP-62 NSCLC, 1.83 µM; in the assay on HT29 colon, 1.33 µM; in the assay on M14 melanoma it was 4.09 µM; in the assay with MOLT-4 leukemia it was 0.368 µM. Also, the GI50 in the assay on OVCAR-8 ovarian is 2.21 µM; in the assay on UACC-257 melanoma it was 13.2 µM. Further, the TGI was found to be 22.8 µM in the assay with BT-549 breast; 11.7 µM in the assay with HL-60(TB) leukemia; 7.27 µM with HOP-62 NSCLC; 6.38 µM with HT29 colon; 58.3 µM in the assay on M14 melanoma; 2.33 µM in the assay with MOLT-4 leukemia. Also, the TGI with OVCAR-8 ovarian worked out at 20.9 µM; in the assay with UACC-257 melanoma it was 42.6 µM.

As for `O=C(O)c1ccc(N/C=C2\C(=O)c3ccccc3OC2O)cc1O` (stereo not drawn), the GI50 was 19 µg/mL in the assay on BT-549 breast; 9.35 µg/mL with HL-60(TB) leukemia; 24.8 µg/mL in the assay on HOP-62 NSCLC; 29.7 µg/mL in the assay on HT29 colon; 21.5 µg/mL in the assay on M14 melanoma; 13.2 µg/mL in the assay on MOLT-4 leukemia. Moreover, the GI50 with OVCAR-8 ovarian was 22 µg/mL; in the assay with UACC-257 melanoma, 28.9 µg/mL. Further, the TGI was 71.2 µg/mL with BT-549 breast; greater than 150 µg/mL in the assay with HL-60(TB) leukemia; 63.7 µg/mL in the assay on HOP-62 NSCLC; 83.2 µg/mL with HT29 colon; 47.5 µg/mL in the assay on M14 melanoma; 77.9 µg/mL with MOLT-4 leukemia. The values for the TGI in the assay with OVCAR-8 ovarian and in the assay on UACC-257 melanoma were 97.2 µg/mL and 93.1 µg/mL, respectively.
